Data published in patent US10220033B2, “Substituted benzoxazepine for cancer therapy” (University of Cape Town, priority 2014, dated 2019).
Read-outs that look alike come from different tables or passages of the source.

Assays:
[1] = test system: NFAT transcriptional activity in NFAT-transfected HeLa cells; experiment: NFAT luciferase reporter assay; assay type: cell-based; conditions: stimulated with TPA and ionomycin (FIGS. 16-20)
Protocol: To assay for NFAT luciferase activity, 30 000 HeLa cells were plated per well in 24-well plates, and transfected with 50 ng GFP-NFAT plasmid (Addgene plasmid #24219, gift of Jerry Crabtree (Beals C R, Clipstone N A, Ho S N, Crabtree G R. Nuclear localization of NF-ATc by a calcineurin-dependent, cyclosporin-sensitive intramolecular interaction. Genes Dev 1997 Apr. 1; 11(7):824-34)), 50 ng NFAT-luciferase (Addgene plasmid #10959, gift of Toren Finkel (Ichida M, Finkel T. Ras regulates NFAT3 activity in cardiac myocytes. J Biol Chem 2001 Feb. 2; 276(5):3524-30)), and 5 ng pRL-TK, using 0.4 μl Genecellin™ Transfection Reagent (Celtic Molecular Diagnostics, South Africa). The NFAT-luciferase reporter plasmid contains three tandem repeats of a 30 bp fragment of the IL-2 promoter known to bind NFAT. The following day cells were treated with 10 or 15 μM Compound A and after an overnight incubation, stimulated with 100 nM TPA (Sigma) and 1.3 μM Ionomycin (Santa Cruz Biotechnology, Santa Cruz, Calif., USA) for 5 hours, following which luciferase activity was measured.
An assay for nuclear NFAT following ionomycin and Compound A treatment was carried out, using an NFAT-luciferase reporter that is activated by nuclear NFAT. The phorbol ester TPA was used to co-stimulate NFAT, as it has been shown previously that TPA and ionomycin elicit synergistic stimulation of NFAT luciferase activity (Northrop J P, Ullman K S, Crabtree G R. Characterization of the nuclear and cytoplasmic components of the lymphoid-specific nuclear factor of activated T cells (NF-AT) complex. J Biol Chem 1993 Feb. 5; 268(4):2917-23).

[2] = test system: PARP cleavage in CaSki cells; experiment: PARP cleavage analysis by Western Blot; assay type: cell-based; conditions: IC50 and twice the IC50 (FIG. 5), varying concentrations 12 hours (FIG. 26)
Protocol: CaSki cells were treated with varying concentrations of Compound A for 12 hours, following which cells and cell floaters were harvested using RIPA buffer (10 mM Tris-Cl, pH 7.4, 150 mM NaCl, 1% sodium deoxycholate, 0.1% SDS, 1% Triton X-100, 1× complete protease inhibitor cocktail (Roche, Mannheim, Germany)) and Western Blot analysis performed, using a rabbit anti-Parp1/2 (H-250) antibody (sc-7150).

[3] = test system: HeLa cervical cancer cell line; experiment: MTT assay for cell viability, IC50 determination; assay type: cell-based; conditions: Homo sapiens, HeLa, HeLa, read-out: IC50
Protocol: (§1) Cells were plated in 96-well plates and treated with varying concentrations of a test compound for 48 hours, after which MTT dye, 3-(4,5-dimethylthiazol-2-yl)-2,5-diphenyltetrazolium bromide (Sigma), was added, and crystals solubilised 4 hours later using Solubilisation Reagent (10% SLS in 0.01 M HCl). Absorbencies were measured at 595 nm the following day using a BioTek microplate spectrophotometer (Winooski, Vt., USA) and IC50 curves were generated using GraphPad Prism.

[4] = test system: CaSki cervical cancer cell line; experiment: MTT assay for cell viability, IC50 determination; assay type: cell-based; conditions: Homo sapiens, Ca-Ski, read-out: IC50
Protocol: as §1

[5] = test system: FG0 normal skin fibroblasts (non-cancer); experiment: MTT assay for cell viability, IC50 determination; assay type: cell-based; conditions: Skin fibroblast, 48 hours
Protocol: as §1

[6] = test system: HeLa cancer cells and FG0 non-cancer cells; experiment: Cell proliferation monitored using the MTT assay (FIGS. 6 and 7); assay type: cell-based; conditions: increasing concentrations; HeLa and FG0 (FIGS. 6 and 7)
cancer cell lines = experiment: MTT cell viability, summary statements over panels of cancer cell lines; assay type: cell-based; conditions: CaSki and HeLa (Tables 2 and 3); read-out: IC50 values (cancer cell-killing effects)
Protocol: as §1

[7] = test system: p65 nuclear import (Kpnβ1 cargo protein); experiment: Percentage of nuclear and cytoplasmic p65 (FIG. 4); assay type: cell-based
[8] = test system: WHCO5 oesophageal cancer cell line; experiment: MTT assay for cell viability, IC50 determination; assay type: cell-based, human; conditions: Homo sapiens, compound in salt form
Protocol: as §1

[9] = test system: DMB normal skin fibroblasts (non-cancer); experiment: MTT assay for cell viability, IC50 determination; assay type: cell-based; conditions: Skin fibroblast; DMB; compound in salt form
Protocol: as §1

[10] = MTT assay for cell viability, IC50 determination; assay type: cell-based; conditions: Homo sapiens, MCF-12A; MCF12A; compound in salt form
Protocol: as §1

[11] = test system: MCF7 breast cancer cell line; experiment: MTT assay for cell viability, IC50 determination; assay type: cell-based; conditions: Homo sapiens, compound in salt form
Protocol: as §1

[12] = test system: EPC2 (EPC2-hTERT normal immortalised oesophageal epithelial cells); experiment: MTT assay for cell viability, IC50 determination; assay type: cell-based; conditions: Homo sapiens, compound in salt form
Protocol: as §1

[13] = test system: WI38 non-cancer cell line; experiment: MTT assay for cell viability, IC50 determination; assay type: cell-based; conditions: Homo sapiens, WI-38; WI38; compound in salt form
Protocol: as §1

[14] = test system: KYSE150 oesophageal cancer cell line; experiment: MTT assay for cell viability, IC50 determination; assay type: cell-based; conditions: Homo sapiens, KYSE-150; Kyse150; compound in salt form
Protocol: as §1

[15] = test system: SVWI38 transformed cell line; experiment: MTT assay for cell viability, IC50 determination; assay type: cell-based; conditions: SVWI38; compound in salt form
Protocol: as §1

[16] = test system: MDA-MB-231 breast cancer cell line; experiment: MTT assay for cell viability, IC50 determination; assay type: cell-based; conditions: Homo sapiens, compound in salt form
Protocol: as §1

| IC50 ([3]; 48 h, 48 hours, MTT) | IC50 ([4]; 48 h, MTT) | IC50 [8] | IC50 ([3]; compound in salt form) | IC50 ([4]; compound in salt form) | IC50 [11] | IC50 [14] | IC50 [16] | Structure (SMILES) | NFAT activation (NFAT-luciferase reporter) [1] | PARP cleavage as an indicator of apoptosis [2] | IC50 [5] | cell proliferation [6] | IC50 (cancer cell lines) | nuclear import of Kpnβ1 cargo protein (percentage of nuclear p65 relative to cytoplasmic p65) [7] | IC50 [9] | IC50 [10] | IC50 [12] | IC50 [13] | IC50 [15] |
| --- | --- | --- | --- | --- | --- | --- | --- | --- | --- | --- | --- | --- | --- | --- | --- | --- | --- | --- | --- |
| 14.4 µM | 11.4 µM | – | – | – | – | – | – | Cc1cccc(CN2CCOc3c(cc(-c4ccc(C)s4)cc3OCC3CCCN(C)C3)C2)n1 (stereo not shown) [Compound II, 9-[(1-methylpiperidin-3-yl)methoxy]-4-[(6-methylpyridin-2-yl)methyl]-7-(5-methylthiophen-2-yl)-3,5-dihydro-2H-1,4-benzoxazepine] | significantly diminished NFAT activation | induce cancer cell death via apoptosis | 17.2 µM | inhibit cell proliferation | < 50 µM | inhibit the nuclear import of Kpnβ1 cargo protein | – | – | – | – | – |
| 19.9 µM | 34.1 µM | – | – | – | – | – | – | CNC(=O)[C@@H]1C[C@H](NCc2ccc(OC)c3ccccc23)CN1Cc1ccccc1 [Compound III, (2S,4S)-1-benzyl-4-{[(4-methoxynaphthalen-1-yl)methyl]amino}-N-methylpyrrolidine-2-carboxamide] | significantly diminished NFAT activation | induce cancer cell death via apoptosis | 44.9 µM | inhibit cell proliferation | < 50 µM | inhibit the nuclear import of Kpnβ1 cargo protein | – | – | – | – | – |
| – | 27.4 µM | 20.3 µM | 23.1 µM | 27.4 µM | 44.9 µM | 25.5 µM | 30 µM | CC(C)Cc1ccc(CNCc2cccnc2N2CCCN(C)CC2)s1 [Compound XII, 1-(5-isobutyl-2-thienyl)-N-[[2-(4-methyl-1,4-diazepan-1-yl)-3-pyridyl]methyl]methanamine] | – | – | – | – | – | – | 57 µM | 34.1 µM | 41.6 µM | 33.8 µM | 31.3 µM |
| – | 39.5 µM | 40.1 µM | 53.6 µM | 39.5 µM | 44.5 µM | 98.4 µM | 33 µM | Cc1ccc(OC[C@@H](O)CNCc2ccc3c(c2)OCO3)cc1C [Compound XIII, 1-(benzo[1,3]dioxol-5-ylmethylamino)-3-(3,4-dimethylphenoxy)-propan-2-ol] | – | – | – | – | – | – | 93 µM | 49.3 µM | 34.6 µM | 36.2 µM | 42.1 µM |
